Measurements: ChEMBL document CHEMBL3352244, “Synthesis and biological activity of 5-(4-methoxyphenyl)-oxazole derivatives” (Bioorg Med Chem Lett, 2015)
Converted amounts (≈) assume the structure as drawn.

Experiments:
Caenorhabditis elegans [1] = assay: Inhibition of hatch of eggs newly spawned by adult Caenorhabditis elegans measured on day 3; assay type: functional; conditions: 72 h
Caenorhabditis elegans [2] = assay: Growth inhibition of adult Caenorhabditis elegans measured on day 3 by microscopy; assay type: functional; conditions: 72 h
HeLa = assay: Cytotoxic activity against human HeLa cells after 48 hrs by WST8 assay; assay type: functional, cell-based
[3] = Cytotoxic activity against human HL60 cells after 48 hrs by WST8 assay; assay type: functional, cell-based; conditions: HL-60, 48 h
Pyricularia oryzae = assay: Antimicrobial activity against Magnaporthe oryzae incubated at 28 degC for 48 hrs; assay type: functional, organism-based
Candida albicans = assay: Antimicrobial activity against Candida albicans incubated at 28 degC for 24 hrs; assay type: functional, organism-based
Aspergillus fumigatus = assay: Antimicrobial activity against Aspergillus fumigatus incubated at 28 degC for 24 hrs; assay type: functional, organism-based
D-aspartate oxidase 3 = biological target: T1, D-aspartate oxidase 3 (Caenorhabditis elegans, UniProt O01739); assay: Inhibition of Caenorhabditis elegans DDO3 incubated for 10 mins
T1 sequence (O01739 whole entry): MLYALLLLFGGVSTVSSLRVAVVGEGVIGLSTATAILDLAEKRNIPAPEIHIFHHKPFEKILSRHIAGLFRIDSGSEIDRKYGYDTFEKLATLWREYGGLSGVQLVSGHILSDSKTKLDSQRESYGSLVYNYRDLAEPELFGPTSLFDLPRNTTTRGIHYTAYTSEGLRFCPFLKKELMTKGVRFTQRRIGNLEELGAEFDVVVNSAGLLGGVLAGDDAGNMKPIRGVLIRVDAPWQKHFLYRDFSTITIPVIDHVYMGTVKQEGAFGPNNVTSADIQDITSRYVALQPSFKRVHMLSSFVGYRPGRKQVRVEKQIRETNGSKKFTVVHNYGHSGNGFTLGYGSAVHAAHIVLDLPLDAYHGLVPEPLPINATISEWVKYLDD

Escherichia coli = assay: Antimicrobial activity against Escherichia coli incubated at 37 degC for 24 hrs; assay type: functional, organism-based
Plasmodium falciparum = assay: Antimalarial activity against Plasmodium falciparum K1 after 72 hrs by parasite LDH assay; assay type: functional, organism-based; conditions: K1, 72 h
Caenorhabditis elegans [4] = assay: Inhibition of hatch of eggs newly spawned by adult Caenorhabditis elegans at 17 uM measured on day 3; assay type: functional; conditions: 72 h
D-amino-acid oxidase = biological target: T2, D-amino-acid oxidase (Caenorhabditis elegans, UniProt Q95XG9); assay: Inhibition of Caenorhabditis elegans DAO incubated for 10 mins
T2 sequence (Q95XG9 whole entry): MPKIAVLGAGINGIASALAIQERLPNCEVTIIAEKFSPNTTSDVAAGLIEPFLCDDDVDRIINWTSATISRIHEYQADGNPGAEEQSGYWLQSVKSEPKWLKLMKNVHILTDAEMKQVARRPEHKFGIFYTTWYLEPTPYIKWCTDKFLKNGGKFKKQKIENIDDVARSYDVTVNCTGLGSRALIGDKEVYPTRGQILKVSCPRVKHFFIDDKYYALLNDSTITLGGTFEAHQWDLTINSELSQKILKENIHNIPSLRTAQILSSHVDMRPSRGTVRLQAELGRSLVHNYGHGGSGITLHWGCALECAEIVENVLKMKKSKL

Staphylococcus aureus = assay: Antimicrobial activity against Staphylococcus aureus incubated at 37 degC for 24 hrs; assay type: functional, organism-based

| SMILES | MIC (Caenorhabditis elegans [1]) [µM] | MIC (Caenorhabditis elegans [2]) [µM] | further results |
| --- | --- | --- | --- |
| Cc1ccc(-c2cnco2)cc1 | > 100 | > 100 |  |
| COc1ccc(-c2c[nH]cn2)cc1 | > 100 | > 100 |  |
| COc1ccc(-c2cnco2)cc1 | 17 (≈ 2.98 µg/mL) | 34 (≈ 5.96 µg/mL) | EC50 (HeLa): 30 µM; EC50 [3]: > 100 µM; EC50 (Pyricularia oryzae): 4 µM; EC50 (Candida albicans): > 100 µM; EC50 (Aspergillus fumigatus): > 100 µM; EC50 (D-aspartate oxidase 3): > 100 µM; EC50 (Escherichia coli): > 100 µM; EC50 (Plasmodium falciparum): > 100 µM; inhibition at 17 µM (Caenorhabditis elegans [4]): 100%; EC50 (D-amino-acid oxidase): > 100 µM; EC50 (Staphylococcus aureus): > 100 µM |
| COc1cccc(-c2cnco2)c1 | > 100 | > 100 |  |
| COc1ccccc1-c1cnco1 | > 100 | > 100 |  |
| COc1ccc(-c2cocn2)cc1 | > 100 | > 100 |  |
| c1ccc(-c2cnco2)cc1 | > 100 | > 100 |  |
| Oc1ccc(-c2cnco2)cc1 | > 100 | > 100 | EC50 (HeLa): 51 µM; EC50 [3]: > 100 µM; EC50 (Pyricularia oryzae): 15 µM; EC50 (Candida albicans): > 100 µM; EC50 (Aspergillus fumigatus): > 100 µM; EC50 (D-aspartate oxidase 3): > 100 µM; EC50 (Escherichia coli): > 100 µM; EC50 (Plasmodium falciparum): > 100 µM; EC50 (D-amino-acid oxidase): > 100 µM; EC50 (Staphylococcus aureus): > 100 µM |
| CC(=O)Oc1ccc(-c2cnco2)cc1 | > 100 | > 100 |  |
| CCc1ccc(-c2cnco2)cc1 | > 100 | > 100 |  |
| COC(=O)c1ccc(-c2cnco2)cc1 | > 100 | > 100 |  |
| O=C(O)c1ccc(-c2cnco2)cc1 | > 100 | > 100 |  |
| N#Cc1ccc(-c2cnco2)cc1 | 100 (≈ 17 µg/mL) | > 100 |  |
| CN(C)c1ccc(-c2cnco2)cc1 | > 100 | 50 (≈ 9.41 µg/mL) |  |
| COC(=O)c1cc(-c2cnco2)ccc1OC | > 100 | > 100 |  |
| COc1ccc(-c2cnco2)cc1C(=O)O | > 100 | > 100 |  |
| COc1ccc(-c2ncco2)cc1 | > 100 | 100 (≈ 17.5 µg/mL) |  |
| CCOC(=O)c1ccc(-c2ncc(-c3ccc(OC)cc3)o2)cc1 | > 100 | > 100 |  |
| COc1ccc(-c2cnc(-c3ccc(C(=O)O)cc3)o2)cc1 | > 100 | > 100 |  |
| COc1ccc(-c2cncs2)cc1 | > 100 | 50 (≈ 9.56 µg/mL) |  |
